Experimental data reported in PubChem BioAssay (NCI).
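Values below derive from 48-hour exposures of cells grown in 96-well plates, with endpoints linearly interpolated between the two concentrations bracketing the appropriate inhibition level. TGI denotes the concentration required for complete inhibition of growth.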

Tests used:
Test in all cases: NCI-60 cell line screen, 48 h
NCI-H23 lung = tested on: NCI-H23 lung
COLO 205 colon = tested on: COLO 205 colon
M14 melanoma = tested on: M14 melanoma
SW-620 colon = tested on: SW-620 colon
K-562 leukemia = tested on: K-562 leukemia
ACHN renal = tested on: ACHN renal
OVCAR-5 ovarian = tested on: OVCAR-5 ovarian
A498 renal = tested on: A498 renal
UACC-257 melanoma = tested on: UACC-257 melanoma
U251 CNS = tested on: U251 CNS
HL-60(TB) leukemia = tested on: HL-60(TB) leukemia
SR leukemia = tested on: SR leukemia
MOLT-4 leukemia = tested on: MOLT-4 leukemia
LOX IMVI melanoma = tested on: LOX IMVI melanoma
NCI/ADR-RES ovarian = tested on: NCI/ADR-RES ovarian
DU-145 prostate = tested on: DU-145 prostate
T-47D breast = tested on: T-47D breast

SMILES | TGI (NCI-H23 lung) [µM] | TGI (COLO 205 colon) [µM] | TGI (M14 melanoma) [µM] | TGI (SW-620 colon) [µM] | TGI (K-562 leukemia) [µM] | TGI (ACHN renal) [µM] | TGI (OVCAR-5 ovarian) [µM] | TGI (A498 renal) [µM] | TGI (UACC-257 melanoma) [µM] | TGI (U251 CNS) [µM] | TGI (HL-60(TB) leukemia) [µM] | TGI (SR leukemia) [µM] | TGI (MOLT-4 leukemia) [µM] | TGI (LOX IMVI melanoma) [µM] | TGI (NCI/ADR-RES ovarian) [µM] | TGI (DU-145 prostate) [µM] | TGI (T-47D breast) [µM]
COc1ccc2c(c1)[n+](=O)c(C(=O)C/C(=N/NC(=O)C[N+](C)(C)C)C(=O)Nc1cccc(C)c1C)c(C)n2O | > 100 | > 100 | > 100 | > 100 | > 100 | > 100 | > 100 | > 100 | > 100 | > 100 | – | – | – | – | – | – | –
COc1ccccc1-n1c(N)c2c(C)c(-c3ccccc3)[nH]c2nc1=S | > 100 | > 100 | > 100 | > 100 | > 100 | > 100 | > 100 | > 100 | > 100 | > 100 | > 100 | > 100 | > 100 | > 100 | – | – | –
COc1cc(C2c3cc4c(cc3OC(NCCc3ccccc3)C2C)OCO4)cc(OC)c1OC (stereo not given) | > 20.9 | 0.605 | > 47.6 | > 100 | 16.9 | > 51.8 | > 100 | – | > 85.5 | 14.7 | 0.547 | – | > 37.7 | 15.6 | > 22.3 | > 100 | 66.8
CN(C)/C=N\c1nncc2[nH]cnc12 | > 100 | > 100 | > 100 | > 100 | > 100 | > 100 | > 100 | > 100 | > 100 | > 100 | – | – | > 100 | > 100 | > 100 | – | > 100
COc1cc2c(cc1O)CN1CCC23C=C[C@@H](O)CC13 (stereo not given in full) | > 100 | 78.1 | > 100 | > 100 | > 100 | > 100 | > 100 | > 100 | > 100 | > 100 | 38 | > 100 | > 100 | > 100 | – | – | –
CCN(CC)CCC1(C2CCCCC2)CCC(=O)NC1=O (stereo not given) | > 100 | > 100 | > 100 | > 100 | > 100 | > 100 | > 100 | > 100 | > 100 | > 100 | – | – | > 100 | > 100 | – | – | –
CCOC(=O)C(/C(=N\NC(=O)OC)C(=O)Nc1cc(OC)ccc1OC)c1cnc2ccccc2n1 (stereo not given) | > 100 | > 100 | > 100 | > 100 | > 100 | > 100 | – | > 100 | > 100 | > 100 | > 100 | > 100 | – | > 100 | – | – | –
COc1cc(C2C(C(=O)Nc3ccc([N+](=O)[O-])cc3)=C(C)NC(C)=C2C(=O)Nc2ccc([N+](=O)[O-])cc2)ccc1O | > 77.1 | 30.9 | > 60.5 | 52.3 | 81.6 | > 67.2 | > 95.8 | 99.8 | 54.6 | 33.8 | > 100 | > 44.1 | 75.4 | 31.5 | – | – | –
CCOc1ccc(/C=C(\Cl)c2ccc(OC)cc2)cc1 | > 100 | > 100 | > 100 | > 100 | > 100 | > 100 | – | > 100 | > 100 | > 100 | > 100 | > 100 | > 100 | – | – | – | –
C[C@@H]1OC2(O)[C@H]3CCCN3S(=O)(=O)CCN2C1=O (stereo not given in full) | > 100 | > 100 | > 100 | > 100 | > 100 | > 100 | > 100 | > 100 | > 100 | > 100 | > 100 | > 100 | > 100 | > 100 | – | – | –
CCOC(=O)c1cnc2c(ccc3[nH]cccc32)c1=O | > 100 | > 100 | > 100 | > 100 | > 100 | > 100 | > 100 | > 100 | > 100 | > 100 | > 100 | > 100 | > 100 | > 100 | – | – | –
C/C(=N/NC(=O)C[n+]1ccccc1)C(CN(CC(C)C)CC(C)C)C(=O)Nc1ccc(C)cc1C (stereo not given) | > 100 | > 100 | > 100 | > 100 | > 100 | > 100 | > 100 | 92.9 | > 100 | – | > 100 | > 100 | > 100 | – | – | – | –
CCCCCCCCCCCCCCCCc1c(C(=O)OC)nc(NN)[nH]c1=O | > 50 | > 50 | > 50 | > 50 | > 50 | > 50 | > 50 | > 50 | > 50 | > 50 | > 50 | – | > 50 | > 50 | – | – | –
C/C(=N\NC(=S)NC(CCC(=O)O)C(=O)O)c1cnccn1 (stereo not given) | > 100 | > 100 | > 100 | > 100 | > 100 | > 100 | > 100 | > 100 | > 100 | > 100 | > 100 | > 100 | > 100 | > 100 | – | – | –
CCOC(=O)CCC(NC(=O)c1ccc(N=Cc2nc3ccccc3nc2-c2ccccc2)cc1)C(=O)OCC (stereo not given) | > 100 | > 100 | > 100 | > 100 | > 100 | > 100 | > 100 | > 100 | > 100 | > 100 | > 100 | > 100 | > 100 | > 100 | – | – | –
C[C@@]1(Cc2ccccc2)C(=O)N2[C@@H](CO)C(c3ccccc3)O[C@]2(C)c2ccccc21 (stereo not given in full) | > 100 | > 100 | > 100 | > 100 | > 100 | > 100 | > 100 | – | – | > 100 | > 100 | > 100 | > 100 | > 100 | – | – | –
